Test results published in patent publication US20180214388A1, “COMPOSITION AND METHOD FOR REDUCING SCARRING” (priority 2015, published 2018).

Experiments:
[1] = tested on: cytochrome P450 oxidase enzyme system; settings: metabolized in the liver; cited from earlier work
[2] = tested on: subjects with existing scars, incision after surgical removal; test: Caffeine cream for scar reduction or prevention after surgical excision (Example 3); format: in vivo, human; settings: topical cream; both subjects felt caffeine effects
From the text: Two subjects with existing scars were chosen for the study.
Subject #1 presented with a skin growth on the left mid cheek.
Subject #2 presented with an older mid-forehead scar. […] The subject underwent a third revision of the scar.

[3] = cited from earlier work
wound = test: Wound healing with application of resveratrol; format: in vivo

## Cn1c(=O)[nH]c2ncn(C)c2c1=O [Paraxanthine, 1,7-dimethyl-3H-purine-2,6-dione]
[1]
  share of caffeine metabolites: 84%

## Cn1c(=O)c2c(ncn2C)n(C)c1=O [caffeine, 1,3,7-trimethylpurine-2,6-dione]
[2]
  uptake from application site and distribution: rapidly taken from the application site and distributed throughout the body

## Oc1ccc(/C=C/c2cc(O)cc(O)c2)cc1 [resveratrol, trans-3,4′,5-trihydroxystilbene]
[3]
  solubility in water: very low solubility
wound
  resulting scar: attenuated scar
  time to epithelialization: ≤ 24 h

## Cn1c(=O)c2[nH]cnc2n(C)c1=O [theophylline, 1,3-dimethyl-7H-purine-2,6-dione, reference compound]
[1]
  share of caffeine metabolites: 4%
